Data from the NIST ThermoML archive (doi:10.1016/j.fluid.2018.05.028).

Experiment: refractive index (Na D-line) (dimensionless); xn = mol fraction of the nth substance listed
Settings: 101 kPa, Liquid, Standard Abbe refractometry

CCCCCCCC/C=C\CCCCCCCC(=O)OCC [ethyl (Z)-9-octadeceneoate] + CCCO
refractive index
Settings	x2 = 0	x2 = 0.1	x2 = 0.2	x2 = 0.3	x2 = 0.4	x2 = 0.5	x2 = 0.6	x2 = 0.7	x2 = 0.8	x2 = 0.9
293.15 K	1.4494	1.4484	1.4468	1.4448	1.4422	1.4388	1.4346	1.4287	1.4205	1.408
298.15 K	1.4474	1.4464	1.4448	1.4427	1.4401	1.4367	1.4325	1.4267	1.4184	1.4058
303.15 K	1.4454	1.4444	1.4427	1.4406	1.4381	1.4347	1.4305	1.4246	1.4163	1.4037
308.15 K	1.4433	1.4423	1.4407	1.4386	1.436	1.4326	1.4284	1.4225	1.4142	1.4016
313.15 K	1.4414	1.4403	1.4386	1.4365	1.4339	1.4305	1.4262	1.4204	1.4121	1.3994
318.15 K	1.4395	1.4382	1.4366	1.4344	1.4318	1.4284	1.4241	1.4183	1.4099	1.3973
323.15 K	1.4375	1.4362	1.4345	1.4323	1.4297	1.4263	1.422	1.4161	1.4078	1.3952
328.15 K	1.4355	1.4341	1.4325	1.4303	1.4276	1.4242	1.4199	1.4139	1.4057	1.393
333.15 K	1.4335	1.4321	1.4304	1.4282	1.4255	1.422	1.4178	1.4118	1.4035	1.3907
338.15 K	1.4315	1.4301	1.4284	1.4261	1.4234	1.4199	1.4156	1.4096	1.4013	1.3884
343.15 K	1.4296	1.4281	1.4264	1.4241	1.4213	1.4178	1.4134	1.4074	1.3991	1.3861

CCCCCCCCCCCCCCCC [hexadecane] + CCCO
refractive index
Settings	x2 = 0	x2 = 0.1	x2 = 0.2	x2 = 0.3	x2 = 0.4	x2 = 0.5	x2 = 0.6	x2 = 0.7	x2 = 0.8	x2 = 0.9
293.15 K	1.434	1.4327	1.431	1.4288	1.4266	1.4233	1.4196	1.4148	1.4084	1.3993
298.15 K	1.4318	1.4305	1.4288	1.4266	1.4244	1.4211	1.4174	1.4127	1.4062	1.3972
303.15 K	1.4296	1.4284	1.4266	1.4244	1.4222	1.4189	1.4152	1.4105	1.4041	1.3951
308.15 K	1.4275	1.4262	1.4245	1.4223	1.42	1.4167	1.4131	1.4083	1.4019	1.3929
313.15 K	1.4254	1.4241	1.4223	1.4201	1.4179	1.4145	1.4109	1.4061	1.3998	1.3908
318.15 K	1.4233	1.4219	1.4201	1.4179	1.4156	1.4123	1.4087	1.4038	1.3976	1.3885
323.15 K	1.4211	1.4197	1.4179	1.4157	1.4134	1.41	1.4064	1.4016	1.3952	1.3863
328.15 K	1.419	1.4176	1.4157	1.4135	1.4112	1.4077	1.4041	1.3993	1.393	1.3841
333.15 K	1.4169	1.4154	1.4135	1.4113	1.4089	1.4054	1.4018	1.397	1.3907	1.3818
338.15 K	1.4149	1.4133	1.4113	1.4091	1.4067	1.4032	1.3995	1.3947	1.3884	1.3795
343.15 K	1.4129	1.4111	1.4092	1.4069	1.4044	1.401	1.3972	1.3924	1.386	1.3771

CCCCCCCCCCCCCCCC [hexadecane] + CCCCO
refractive index
Settings	x2 = 0	x2 = 0.1	x2 = 0.2	x2 = 0.3	x2 = 0.4	x2 = 0.5	x2 = 0.6	x2 = 0.7	x2 = 0.8	x2 = 0.9
293.15 K	1.434	1.4329	1.4315	1.4295	1.4274	1.425	1.422	1.4184	1.4139	1.4078
298.15 K	1.4318	1.4307	1.4293	1.4274	1.4252	1.4228	1.4199	1.4162	1.4118	1.4057
303.15 K	1.4296	1.4286	1.4271	1.4252	1.4231	1.4206	1.4177	1.4141	1.4096	1.4036
308.15 K	1.4275	1.4264	1.425	1.423	1.4209	1.4185	1.4155	1.4119	1.4075	1.4015
313.15 K	1.4254	1.4242	1.4228	1.4208	1.4187	1.4163	1.4134	1.4097	1.4053	1.3994
318.15 K	1.4233	1.4221	1.4206	1.4186	1.4165	1.4141	1.4111	1.4075	1.4031	1.3973
323.15 K	1.4211	1.4199	1.4184	1.4164	1.4143	1.4119	1.4089	1.4053	1.4009	1.3951
328.15 K	1.419	1.4177	1.4162	1.4142	1.4121	1.4097	1.4067	1.4031	1.3987	1.3929
333.15 K	1.4169	1.4156	1.4141	1.4121	1.4099	1.4074	1.4045	1.4009	1.3965	1.3907
338.15 K	1.4149	1.4135	1.4119	1.4099	1.4077	1.4052	1.4022	1.3987	1.3942	1.3885
343.15 K	1.4129	1.4114	1.4097	1.4076	1.4056	1.403	1.4	1.3964	1.392	1.3862
